Results reported in patent US9359358B2, “Cyclohexyl azetidine derivatives as JAK inhibitors” (Incyte Holdings Corporation, priority 2011, dated 2016).
Structures can show the parent of a compound that is named as a salt.

Tests used:
human JAK2 = molecular target: T1, human JAK2 (Homo sapiens, UniProt O60674); assay: In Vitro JAK Kinase Assay (HTRF, phosphorylation of a biotinylated peptide), JAK2; assay type: biochemical; details: assay of Example A
T1 construct: JAK2 (a.a. 828-1132); His tag (N); made in house; host or cells: insect cells (baculovirus)
Method: (§1) The catalytic activity of JAK1, JAK2 or JAK3 was assayed by measuring the phosphorylation of a biotinylated peptide. The phosphorylated peptide was detected by homogenous time resolved fluorescence (HTRF). […] Reactions were carried out at room temperature for 1 hour and then stopped with 20 μL 45 mM EDTA, 300 nM SA-APC, 6 nM Eu-Py20 in assay buffer (Perkin Elmer, Boston, Mass.). Binding to the Europium labeled antibody took place for 40 minutes and HTRF signal was measured on a Fusion plate reader (Perkin Elmer, Boston, Mass.).

human JAK1 = molecular target: T2, human JAK1 (Homo sapiens, UniProt P23458); assay: In Vitro JAK Kinase Assay (HTRF, phosphorylation of a biotinylated peptide), JAK1; assay type: biochemical; details: catalytic domain a.a. 837-1142, assay of Example A
T2 construct: human JAK1 (a.a. 837-1142); His tag (N); made in house; host or cells: insect cells (baculovirus)
Method: as §1

T2 sequence (P23458 849-1154): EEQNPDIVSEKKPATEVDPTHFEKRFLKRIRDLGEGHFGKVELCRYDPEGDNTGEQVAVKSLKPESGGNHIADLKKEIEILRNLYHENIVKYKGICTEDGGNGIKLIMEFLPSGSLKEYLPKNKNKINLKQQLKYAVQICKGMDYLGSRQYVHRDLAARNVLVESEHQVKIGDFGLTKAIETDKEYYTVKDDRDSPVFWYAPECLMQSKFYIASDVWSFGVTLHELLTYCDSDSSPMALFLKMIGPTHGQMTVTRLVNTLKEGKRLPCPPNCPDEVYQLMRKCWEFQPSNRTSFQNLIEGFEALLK
T1 sequence (O60674 828-1132): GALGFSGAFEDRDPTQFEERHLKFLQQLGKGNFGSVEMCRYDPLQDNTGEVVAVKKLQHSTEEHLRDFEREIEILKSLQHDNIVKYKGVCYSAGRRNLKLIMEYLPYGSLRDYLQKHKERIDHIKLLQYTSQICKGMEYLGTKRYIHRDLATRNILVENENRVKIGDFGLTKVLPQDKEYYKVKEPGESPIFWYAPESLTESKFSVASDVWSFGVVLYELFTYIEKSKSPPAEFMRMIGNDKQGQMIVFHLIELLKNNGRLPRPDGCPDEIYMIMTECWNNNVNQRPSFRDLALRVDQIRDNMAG

Compound | JAK2/JAK1 IC50 ratio (human JAK2; Table 4) | IC50 (human JAK1; Table 4) [nM] | JAK2/JAK1 IC50 ratio (human JAK2; Table 5) | IC50 (human JAK1; Table 5) [nM]
CC(C)(F)c1cc(O[C@H]2CC[C@@H](N3CC(CC#N)(n4cc(-c5ncnc6[nH]ccc56)cn4)C3)CC2)nc(C(F)(F)F)n1.O=C(O)C(F)(F)F.O=C(O)C(F)(F)F [Example 61, {1-(cis-4-{[6-(1-fluoro-1-methylethyl)-2-(trifluoromethyl)pyrimidin-4-yl]oxy}cyclohexyl)-3-[4-(7H-pyrrolo[2,3-d]pyrimidin-4-yl)-1H-pyrazol-1-yl]azetidin-3-yl}acetonitrile bis(trifluoroacetate)] | ≧10 | < 10 | – | –
CC(C)NC(=O)c1cc(O[C@H]2CC[C@@H](N3CC(CC#N)(n4cc(-c5ncnc6[nH]ccc56)cn4)C3)CC2)nc(C(F)(F)F)c1 [Example 83, 2-[(cis-4-{3-(cyanomethyl)-3-[4-(7H-pyrrolo[2,3-d]pyrimidin-4-yl)-1H-pyrazol-1-yl]azetidin-1-yl}cyclohexyl)oxy]-N-isopropyl-6-(trifluoromethyl)isonicotinamide bis(trifluoroacetate)] | – | – | ≧10 | < 10
2-(1-(cis-4-((6-(((2-(1H-imidazol-4- yl)ethyl)amino)methyl)-2- (trifluoromethyl)pyrimidin-4- yl)oxy)cyclohexyl)-3-(4-(7H-pyrrolo[2,3- d]pyrimidin-4-yl)-1H-pyrazol-1- yl)azetidin-3-yl)acetonitrile tris(trifluoroacetate) (salt) [Example 39] | ≧10 | < 10 | – | –
C[C@@H](CO)NCc1cc(O[C@H]2CC[C@@H](N3CC(CC#N)(n4cc(-c5ncnc6[nH]ccc56)cn4)C3)CC2)nc(C(F)(F)F)n1 [Example 16, {1-(cis-4-{[6-({[(1S)-2-hydroxy-1-methylethyl]amino}methyl)-2-(trifluoromethyl)pyrimidin-4-yl]oxy}cyclohexyl)-3-[4-(7H-pyrrolo[2,3-d]pyrimidin-4-yl)-1H-pyrazol-1-yl]azetidin-3-yl}acetonitrile Ex 1 tris(trifluoroacetate) (salt)] | ≧10 | < 10 | – | –
N#CCC1(n2cc(-c3ncnc4[nH]ccc34)cn2)CN([C@H]2CC[C@@H](Oc3cc(CNCCO)cc(C(F)(F)F)n3)CC2)C1 [Example 74, {1-(cis-4-{[4-{[(2-hydroxyethyl)amino]methyl}-6-(trifluoromethyl)pyridin-2-yl]oxy}cyclohexyl)-3-[4-(7H-pyrrolo[2,3-d]pyrimidin-4-yl)-1H-pyrazol-1-yl]azetidin-3-yl}acetonitrile tris(trifluoroacetate)] | – | – | ≧10 | < 10
N#CCC1(n2cc(-c3ncnc4[nH]ccc34)cn2)CN([C@H]2CC[C@@H](Oc3cc(CNCC(F)(F)F)nc(C(F)(F)F)n3)CC2)C1.O=C(O)C(F)(F)F.O=C(O)C(F)(F)F.O=C(O)C(F)(F)F [Example 14, [3-[4-(7H-pyrrolo[2,3-d]pyrimidin-4-yl)-1H-pyrazol-1-yl]-1-(cis-4-{[6-{[(2,2,2-trifluoroethyl)amino]methyl}-2-(trifluoromethyl)pyrimidin-4-yl]oxy}cyclohexyl)azetidin-3-yl]acetonitrile tris(trifluoroacetate)] | ≧10 | < 10 | – | –
CC(C)(O)CNCc1cc(O[C@H]2CC[C@@H](N3CC(CC#N)(n4cc(-c5ncnc6[nH]ccc56)cn4)C3)CC2)nc(C(F)(F)F)n1 [Example 20, {1-(cis-4-{[6-{[(2-hydroxy-2-methylpropyl)amino]methyl}-2-(trifluoromethyl)pyrimidin-4-yl]oxy}cyclohexyl)-3-[4-(7H-pyrrolo[2,3-d]pyrimidin-4-yl)-1H-pyrazol-1-yl]azetidin-3-yl}acetonitrile tris(trifluoroacetate) (salt)] | ≧10 | < 10 | – | –
N#CCC1(n2cc(-c3ncnc4[nH]ccc34)cn2)CN([C@H]2CC[C@@H](Oc3cc(C#N)nc(C(F)(F)F)n3)CC2)C1 [Example 54, 6-[(cis-4-{3-(cyanomethyl)-3-[4-(7H-pyrrolo[2,3-d]pyrimidin-4-yl)-1H-pyrazol-1-yl]azetidin-1-yl}cyclohexyl)oxy]-2-(trifluoromethyl)pyrimidine-4-carbonitrile bis(trifluoroacetate)] | ≧10 | < 10 | – | –
COCC(C)NCc1cc(O[C@H]2CC[C@@H](N3CC(CC#N)(n4cc(-c5ncnc6[nH]ccc56)cn4)C3)CC2)nc(C(F)(F)F)n1 (stereo partly drawn) [Example 41, {1-(cis-4-{[6-{[(2-methoxy-1-methylethyl)amino]methyl}-2-(trifluoromethyl)pyrimidin-4-yl]oxy}cyclohexyl)-3-[4-(7H-pyrrolo[2,3-d]pyrimidin-4-yl)-1H-pyrazol-1-yl]azetidin-3-yl}acetonitrile tris(trifluoroacetate)] | ≧10 | < 10 | – | –
N#CCC1(n2cc(-c3ncnc4[nH]ccc34)cn2)CN([C@H]2CC[C@@H](Oc3cc(CN4CC(O)C4)cc(C(F)(F)F)n3)CC2)C1 [Example 79, {1-(cis-4-{[4-[(3-hydroxyazetidin-1-yl)methyl]-6-(trifluoromethyl)pyridin-2-yl]oxy}cyclohexyl)-3-[4-(7H-pyrrolo[2,3-d]pyrimidin-4-yl)-1H-pyrazol-1-yl]azetidin-3-yl}acetonitrile tris(trifluoroacetate)] | – | – | ≧10 | < 10
CN(CCO)Cc1cc(O[C@H]2CC[C@@H](N3CC(CC#N)(n4cc(-c5ncnc6[nH]ccc56)cn4)C3)CC2)nc(C(F)(F)F)n1 [Example 12, {1-(cis-4-{[6-{[(2-hydroxyethyl)(methyl)amino]methyl}-2-(trifluoromethyl)pyrimidin-4-yl]oxy}cyclohexyl)-3-[4-(7H-pyrrolo[2,3-d]pyrimidin-4-yl)-1H-pyrazol-1-yl]azetidin-3-yl}acetonitrile tris(trifluoroacetate) (salt)] | ≧10 | < 10 | – | –
CNC(=O)c1cc(O[C@H]2CC[C@@H](N3CC(CC#N)(n4cc(-c5ncnc6[nH]ccc56)cn4)C3)CC2)nc(C(F)(F)F)c1 [Example 80, 2-[(cis-4-{3-(cyanomethyl)-3-[4-(7H-pyrrolo[2,3-d]pyrimidin-4-yl)-1H-pyrazol-1-yl]azetidin-1-yl}cyclohexyl)oxy]-N-methyl-6-(trifluoromethyl)isonicotinamide bis(trifluoroacetate)] | – | – | ≧10 | < 10
N#CCC1(n2cc(-c3ncnc4[nH]ccc34)cn2)CN([C@H]2CC[C@@H](Oc3cc(CNCCCO)nc(C(F)(F)F)n3)CC2)C1 [Example 21, {1-(cis-4-{[6-{[(3-hydroxypropyl)amino]methyl}-2-(trifluoromethyl)pyrimidin-4-yl]oxy}cyclohexyl)-3-[4-(7H-pyrrolo[2,3-d]pyrimidin-4-yl)-1H-pyrazol-1-yl]azetidin-3-yl}acetonitrile tris(trifluoroacetate) (salt)] | ≧10 | < 10 | – | –
CC(C)(CO)NCc1cc(O[C@H]2CC[C@@H](N3CC(CC#N)(n4cc(-c5ncnc6[nH]ccc56)cn4)C3)CC2)nc(C(F)(F)F)n1.O=C(O)C(F)(F)F.O=C(O)C(F)(F)F.O=C(O)C(F)(F)F.O=C(O)C(F)(F)F [Example 52, {1-(cis-4-{[6-{[(2-hydroxy-1,1-dimethylethyl)amino]methyl}-2-(trifluoromethyl)pyrimidin-4-yl]oxy}cyclohexyl)-3-[4-(7H-pyrrolo[2,3-d]pyrimidin-4-yl)-1H-pyrazol-1-yl]azetidin-3-yl}acetonitrile tetrakis(trifluoroacetate) (salt)] | ≧10 | < 10 | – | –
N#CCC1(n2cc(-c3ncnc4[nH]ccc34)cn2)CN([C@H]2CC[C@@H](Oc3cc(CO)cc(C(F)(F)F)n3)CC2)C1 [Example 64, {1-(cis-4-{[4-(hydroxymethyl)-6-(trifluoromethyl)pyridin-2-yl]oxy}cyclohexyl)-3-[4-(7H-pyrrolo[2,3-d]pyrimidin-4-yl)-1H-pyrazol-1-yl]azetidin-3-yl}acetonitrile bis(trifluoroacetate)] | – | – | ≧10 | < 10
CCC(C)NC(=O)c1cc(O[C@H]2CC[C@@H](N3CC(CC#N)(n4cc(-c5ncnc6[nH]ccc56)cn4)C3)CC2)nc(C(F)(F)F)c1.O=C(O)C(F)(F)F.O=C(O)C(F)(F)F (relative stereo) [Example 88, N-(sec-butyl)-2-[(cis-4-{3-(cyanomethyl)-3-[4-(7H-pyrrolo[2,3-d]pyrimidin-4-yl)-1H-pyrazol-1-yl]azetidin-1-yl}cyclohexyl)oxy]-6-(trifluoromethyl)isonicotinamide bis(trifluoroacetate)] | – | – | ≧10 | < 10
COCCNCc1cc(O[C@H]2CC[C@@H](N3CC(CC#N)(n4cc(-c5ncnc6[nH]ccc56)cn4)C3)CC2)nc(C(F)(F)F)n1.O=C(O)C(F)(F)F.O=C(O)C(F)(F)F.O=C(O)C(F)(F)F [Example 22, {1-(cis-4-{[6-{[(2-methoxyethyl)amino]methyl}-2-(trifluoromethyl)pyrimidin-4-yl]oxy}cyclohexyl)-3-[4-(7H-pyrrolo[2,3-d]pyrimidin-4-yl)-1H-pyrazol-1-yl]azetidin-3-yl}acetonitrile tris(trifluoroacetate)] | ≧10 | < 10 | – | –
N#CCC1(n2cc(-c3ncnc4[nH]ccc34)cn2)CN([C@H]2CC[C@@H](Oc3cc(CNCCF)nc(C(F)(F)F)n3)CC2)C1.O=C(O)C(F)(F)F.O=C(O)C(F)(F)F.O=C(O)C(F)(F)F [Example 15, {1-(cis-4-{[6-{[(2-fluoroethyl)amino]methyl}-2-(trifluoromethyl)pyrimidin-4-yl]oxy}cyclohexyl)-3-[4-(7H-pyrrolo[2,3-d]pyrimidin-4-yl)-1H-pyrazol-1-yl]azetidin-3-yl}acetonitrile tris(trifluoroacetate)] | ≧10 | < 10 | – | –
